Data: publication PMC3965533, “Inhibition of Cathepsin B by E-64 Induces Oxidative Stress and Apoptosis in Filarial Parasite” (PLoS ONE, 2014)

Tested on: cathepsin B (cathepsin B like cysteine protease)

- IC50: 6 µM
Structure (SMILES): CC(C)C[C@H](NC(=O)[C@H]1O[C@@H]1C(=O)O)C(=O)NCCCCNC(=N)N [E-64, L-trans-Epoxysuccinyl-leucylamido (4-guanidino)butane]
